Data taken from paper PMC10545732, “Structure-based drug discovery of a corticotropin-releasing hormone receptor 1 antagonist using an X-ray free-electron laser” (Experimental & Molecular Medicine, 2023).

Legend:
CRF1R = biological target: T1, CRF1R (Homo sapiens, UniProt P34998); experiment: Calcium mobilization assay (hCRF1R Ca2+ antagonism); format: cell-based; conditions: for IC50: HEK-Gα15 cells transfected with CRF1R, urocortin 2 nM, n = 3
T1 construct: HEK-Gα15 cells (Eurofins Scientific) transfected with CRF1R; host or cells: HEK-Gα15 cells
T1 sequence (P34998 24-415): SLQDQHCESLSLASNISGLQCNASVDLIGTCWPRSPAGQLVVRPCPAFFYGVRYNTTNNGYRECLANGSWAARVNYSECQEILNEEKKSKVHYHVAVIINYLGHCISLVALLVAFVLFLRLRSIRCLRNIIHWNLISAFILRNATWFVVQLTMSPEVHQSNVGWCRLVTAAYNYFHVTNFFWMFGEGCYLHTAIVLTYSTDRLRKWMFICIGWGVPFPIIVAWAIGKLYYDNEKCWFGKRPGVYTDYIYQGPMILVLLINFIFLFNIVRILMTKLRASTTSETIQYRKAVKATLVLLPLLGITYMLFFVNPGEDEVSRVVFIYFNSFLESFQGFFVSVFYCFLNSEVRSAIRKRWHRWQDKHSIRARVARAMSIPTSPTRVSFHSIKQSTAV
Procedure: HEK-Gα15 cells (Eurofins Scientific) transfected with CRF1R were plated in 96-well plates at a density of 50,000 cells/100 μL per well and incubated overnight. The next day, the cells were incubated with a Calcium 6 reagent (Molecular Devices) containing 0.5 mM probenecid (Sigma) at 37 °C for 1 h before adding compounds or dimethyl sulfoxide DMSO (positive and negative control; final concentration 0.1%). After incubation at 37 °C for 1 h, 50 μL urocortin (final concentration 2 nM) (Tocris) was dispensed into the well with FLIPR-tetra (Molecular Devices). […] Intracellular calcium changes were recorded at excitation and emission wavelengths of 470–495 and 515–575 nm, respectively. Relative fluorescence units (RFU) were calculated as the fluorescence signal maximum minus the signal minimum for 30 s after addition. The graphs and IC50 concentrations were calculated using GraphPad Prism 6 software.

[1] = Microsomal stability assay, rat liver microsomes; format: in vitro ADME; conditions: 1 μM, n = 3
Procedure: The incubation mixtures consisted of 0.5 mg/mL human (Corning, #452117) and rat liver microsomes (Corning, #452701), 0.1 M phosphate buffer (pH 7.4), NADPH regeneration system, and substrates (CRF1R antagonist compounds, 1 µM) in a total volume of 100 μL. […] LC‒MS/MS was performed on a TSQ Vantage (Thermo, USA) coupled with a Nexera XR LC system (Shimadzu, Japan)[32]. The separation was performed on a Kinetex C18 column (2.1 × 100 mm, 2.6 µm, Phenomenex, USA) using a mobile phase of 0.1% formic acid and acetonitrile containing 0.1% formic acid. A gradient program was used for elution at a flow rate of 0.3 mL/min. The data were acquired using multiple-reaction monitoring (MRM) in positive mode. Detection of the ions was performed by monitoring the m/z transition of 494.1 → 336.1 for BMK-I-152, 598.1 → 233.2 for BMK-C203, and 488.1 → 434.1 for BMK-C205.

CYP2C19 = biological target: T2, CYP2C19 (Homo sapiens, UniProt P33261); experiment: CYP inhibition assay CYP2C19 (S-mephenytoin 4-hydroxylase); format: in vitro ADME; conditions: 10 μM, human liver microsomes, n = 3
T2 construct: 0.25 mg/mL human liver microsomes; from tissue; host or cells: human liver microsomes
T2 sequence (P33261 whole entry): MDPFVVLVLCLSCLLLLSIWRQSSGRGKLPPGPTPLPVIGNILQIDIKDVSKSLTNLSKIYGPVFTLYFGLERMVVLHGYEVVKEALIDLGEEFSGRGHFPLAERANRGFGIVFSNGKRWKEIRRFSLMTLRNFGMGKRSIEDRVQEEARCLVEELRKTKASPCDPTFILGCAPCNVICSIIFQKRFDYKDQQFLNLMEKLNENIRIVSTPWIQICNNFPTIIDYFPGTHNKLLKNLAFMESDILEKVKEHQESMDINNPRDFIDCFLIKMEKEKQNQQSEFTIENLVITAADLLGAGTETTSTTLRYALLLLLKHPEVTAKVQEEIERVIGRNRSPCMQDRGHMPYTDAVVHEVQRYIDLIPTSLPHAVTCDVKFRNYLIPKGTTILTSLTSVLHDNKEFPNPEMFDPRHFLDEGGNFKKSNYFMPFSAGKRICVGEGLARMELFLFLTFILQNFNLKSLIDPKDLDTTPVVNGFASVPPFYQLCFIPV
Procedure: Phenacetin O-demethylase, diclofenac 4-hydroxylase, S-mephenytoin 4-hydroxylase, dextromethorphan O-demethylase, and midazolam 1’-hydroxylase activities were determined as probe activities for CYP1A2, CYP2C9, CYP2C19, CYP2D6, and CYP3A4, respectively, using cocktail incubation. […] The cocktail incubation mixtures consisted of 0.25 mg/mL human liver microsomes, 0.1 M phosphate buffer (pH 7.4), an NADPH regeneration system, and inhibitors (CRF1R antagonist compounds, 10 µM) in a total volume of 100 μL. The final volume of the organic solvents in the incubation mixture was 1% (v/v). […] All incubations were performed in triplicate, and the mean values were used for analysis. The samples were then centrifuged at 15,000 rpm for 5 min at 4 °C. […] The CYP-mediated activities in the presence of inhibitors were expressed as percentages of the corresponding control values.

PK studies in rats = format: in vivo, SD rats; conditions: for AUC(0-t) / half-life / Cmax / Tmax / bioavailability: male, Sprague-Dawley, rat, plasma, SD rats, n = 3
Procedure: CRF1R antagonist PKs were studied in naïve male SD rats following a single i.v. bolus injection or p.o. gavage. The i.v. injections used Antalarmin, BMK-C203, or BMK-C205 at doses of 5 mg/kg and BMK-I-152 at a dose of 1 mg/kg. The antagonist’s doses in the p.o. injection was 10 mg/kg. Three male SD rats weighing between 220 and 260 g were used to evaluate CRF1R antagonist PKs. The vehicle used for all dose groups was […]: TPGS: PEG400 (70%:20%:10%). Blood samples were collected from all treatment groups at 0 h (predose), 0.083, 0.25, 0.5, 1, 2, 4, 6, 8, and 24 h after dosing. Antalarmin, BMK-I-152, BMK-C203, and BMK-C205 concentrations in the plasma samples were determined via LC‒MS/MS (LLOQ was 1 ng/mL for CRF1R antagonists). PK parameter estimates were determined using the serial time-course profiles for plasma concentrations of three male rats per group via noncompartmental analysis using commercially available software (Phoenix WinNonlin, version 8.1, Pharsight Corporation, Mountain View, CA).

[2] = In vitro BBB permeability assay; format: in vitro ADME, human; conditions: human; 10 μM apical, 12-h incubation, hCMEC/D3 monolayer; read-out: permeability coefficient
Procedure: Human cerebral microvascular endothelial cells (hCMECs/D3, SCC066; Sigma-Aldrich) were used to assess the permeability of CRF1R antagonists across the BBB. hCMECs were seeded on Falcon^TM cell culture inserts (08-770, Fisher Scientific) with 0.4 μm pore sizes precoated with collagen type I from rat tails (354236, Corning) at a density of 50,000 cells/mL in endothelial cell growth medium-2 (EGM-2, CC-3162; Lonza). The medium was changed with EGM-2 every three to four days for proliferation and with EGM-2 containing 2.5% human serum (SLBX6020, Sigma-Aldrich) for differentiation. Cell culture inserts were transferred into 24-well plates containing 700 μL of EGM-2 in each well (basolateral compartment) for the permeability assay. The medium in the inserts (apical compartment) was then replaced with 300 μL EGM-2 containing 10 μM BMK-C203 or BMK-C205. Apical and basolateral compartments were collected after a 12-h incubation at 37 °C, and drug concentrations were measured using HPLC. For sample preparation, 50 μL of the sample was mixed with 10 μL of an internal standard solution (d4-cortisol). Subsequently, 50 μL of acetonitrile was added, and the mixture was centrifuged at 16,000×g for 10 min for protein precipitation. The supernatants were used for LC‒MS analysis with a triple quadrupole mass spectrometer coupled with HPLC using a C18 reversed-phase column. The concentration of the antagonists was determined using a calibration curve. The permeability coefficient (P) was calculated according to Pardridge et al.[34]. The permeability-surface area product (PS, in cm^3/s) was divided by the filter surface area A (in cm^2) using Eq. (1) as follows:1 Pcm/s=Vd×△Ma/A×[…]×△t where Vd is the volume in the donor compartment in cm^3, ΔMa is the total amount of the compound in the […] compartment after t seconds, Md is the donor amount, Δt is the incubation time, and A is the filter area in cm^2.

| Structure (SMILES) | IC50 (CRF1R) | Liver microsomal stability, Rat (percentage remaining after 30 min) [1] | CYP2C19, percentage of control activity (CYP2C19) | AUC(0-t) (PK studies in rats; iv, I.V, 5 mg/kg) | half-life (PK studies in rats; iv, I.V, 5 mg/kg) | AUC(0-t) (PK studies in rats; po, P.O, 10 mg/kg) | Cmax (PK studies in rats; po, P.O, 10 mg/kg) | Tmax (PK studies in rats; po, P.O, 10 mg/kg) | bioavailability (PK studies in rats; po, P.O, 10 mg/kg) | half-life (PK studies in rats; po, P.O, 10 mg/kg) | Papp at 12 h, 10 µM [2] | IC50 relative to BMK-C203 (CRF1R; hCRF1R Ca2+ antagonism assay) | serum concentration relative to BMK-C203 (PK studies in rats; 2 h after oral administration in the PK test) |
| --- | --- | --- | --- | --- | --- | --- | --- | --- | --- | --- | --- | --- | --- |
| COc1cc(Br)cc(OC)c1-c1c(C)nn2c(N(CCCC(F)(F)F)CCCC(F)(F)F)nc(C)nc12 [BMK-C203] | 0.28 µM | 97.1 ± 8.81% | 83.2 ± 0.5 percentage of control activity | 20.6 µg·h/mL | 4.76 h | 16.1 µg·h/mL | 1.37 µg/mL | 4.67 h | 39.5% | 4.22 h | 0.296 nm/s | – | – |
| CCCCN(CC1CC1)c1nc(C)nc2c(-c3c(OC)cc(Br)cc3OC)c(C)nn12 [BMK-C205] | 0.074 µM | 89.4 ± 2.07% | 89.7 ± 3.8 percentage of control activity | 22.9 µg·h/mL | 6.5 h | 9.88 µg·h/mL | 2.4 µg/mL | 2 h | 21.6% | 3.87 h | 2.11 nm/s | fourfold lower | twice as high |
